From patent publication US11726082B2, “Screening method of drug candidates for treating disease using interaction between calcium and phosphatidylinositol phosphate” (Gachon University of Industry—Academic Cooperation …, priority 2017, dated 2023)

B1: SHIP2: co-treated with the C2-Akt and PI3K vectors (protein, UniProt O15357 1-1258, looked up)
Phosphatidylinositol …: MASACGAPGPGGALGSQAPSWYHRDLSRAAAEELLARAGRDGSFLVRDSESVAGAFALCVLYQKHVHTYRILPDGEDFLAVQTSQGVPVRRFQTLGELIGLYAQPNQGLVCALLLPVEGEREPDPPDDRDASDGEDEKPPLPPRSGSTSISAPTGPSSPLPAPETPTAPAAESAPNGLSTVSHDYLKGSYGLDLEAVRGGASHLPHLTRTLATSCRRLHSEVDKVLSGLEILSKVFDQQSSPMVTRLLQQQNLPQTGEQELESLVLKLSVLKDFLSGIQKKALKALQDMSSTAPPAPQPSTRKAKTIPVQAFEVKLDVTLGDLTKIGKSQKFTLSVDVEGGRLVLLRRQRDSQEDWTTFTHDRIRQLIKSQRVQNKLGVVFEKEKDRTQRKDFIFVSARKREAFCQLLQLMKNKHSKQDEPDMISVFIGTWNMGSVPPPKNVTSWFTSKGLGKTLDEVTVTIPHDIYVFGTQENSVGDREWLDLLRGGLKELTDLDYRPIAMQSLWNIKVAVLVKPEHENRISHVSTSSVKTGIANTLGNKGAVGVSFMFNGTSFGFVNCHLTSGNEKTARRNQNYLDILRLLSLGDRQLNAFDISLRFTHLFWFGDLNYRLDMDIQEILNYISRKEFEPLLRVDQLNLEREKHKVFLRFSEEEISFPPTYRYERGSRDTYAWHKQKPTGVRTNVPSWCDRILWKSYPETHIICNSYGCTDDIVTSDHSPVFGTFEVGVTSQFISKKGLSKTSDQAYIEFESIEAIVKTASRTKFFIEFYSTCLEEYKKSFENDAQSSDNINFLKVQWSSRQLPTLKPILADIEYLQDQHLLLTVKSMDGYESYGECVVALKSMIGSTAQQFLTFLSHRGEETGNIRGSMKVRVPTERLGTRERLYEWISIDKDEAGAKSKAPSVSRGSQEPRSGSRKPAFTEASCPLSRLFEEPEKPPPTGRPPAPPRAAPREEPLTPRLKPEGAPEPEGVAAPPPKNSFNNPAYYVLEGVPHQLLPPEPPSPARAPVPSATKNKVAITVPAPQLGHHRHPRVGEGSSSDEESGGTLPPPDFPPPPLPDSAIFLPPSLDPLPGPVVRGRGGAEARGPPPPKAHPRPPLPPGPSPASTFLGEVASGDDRSCSVLQMAKTLSEVDYAPAGPARSALLPGPLELQPPRGLPSDYGRPLSFPPPRIRESIQEDLAEEAPCLQGGRASGLGEAGMSAWLRAIGLERYEEGLVHNGWDDLEFLSDITEEDLEEAGVQDPAHKRLLLDTLQLSK

How the values were obtained:
human HepG2 cells [1] = experiment: Intracellular calcium concentration with Fluo-3 AM in insulin resistance induced cells; format: cell-based; conditions: PA 0, 100, 300 or 500 μM, 24 hours
Protocol: First, male C57BL/6 mice at 8 weeks (Orient Bio, Korea) were raised in an animal facility of Lee Gil Ya Cancer and Diabetes Institute (Gachon University, Korea). Particularly, the mice were raised in a sterile chamber at the temperature of 23±1° C. with 12 hr/12 hr light/dark cycle, and free dietary environment. At this time, the mice were divided into the fasted group wherein the mice were fasted for 16 hours and the refed group wherein the mice were fasted for 16 hours and then fed for 4 hours. Each group was sub-divided into the high fat diet group (HFD) and the normal diet group (chow). The high fat diet group (HFD) mice were fed with diet containing 60% fat, while the normal diet group (chow) mice were fed with diet containing 10% fat. 8 weeks later, the mice were anesthetized and the liver was perfused by using buffer 1 (142 mM NaCl, 6.7 mM KCl, 10 mM HEPES and 2.5 mM EGTA, pH 7.4). Buffer 1 above was replaced with buffer 2 (0.5 mg/Mg […], 66.7 mM NaCl, 6.7 mM KCl, 10 mM HEPES and 4.8 mM CaCl, pH 7.6), and then the perfused liver was extracted. The extracted liver was washed and degraded by using Percoll cushion gradient. The degraded cells were suspended and cultured in Hepatozyme-SFM (Gibco-BRL USA) culture medium supplemented with 10% FBS and 1% antibiotics and antifungal agent. […] The mounted cells were analyzed using a fluorescence microscope (Zeiss Axioplan 2). […]

human HepG2 cells [2] = experiment: Intracellular calcium dynamics with Fura-2 AM in insulin resistance induced cells; format: cell-based; conditions: PA
Protocol: First, human HepG2 cells were cultured in DMEM (Dulbecco's Modified Eagle Medium) supplemented with 10% fetal bovine serum (FBS), 25 mM glucose, 2 mM L-glutamine, 100 U/Ml of penicillin and 100 μg/Ml of streptomycin. At this time, the culture was performed in a 37° C., 5% CO2 incubator. The cultured cells were distributed in a culture plate at the density of 5.0×10^5 cells/well, followed by further culture for overnight. Palmitic acid (PA) was added to the plate at the concentration of 0, 100, 300 or 500 μM, followed by reaction for 24 hours. Then, the concentration of calcium was investigated by using Fluo-3 AM according to the same conditions and procedures as described in Example 1, and the results are shown in FIG. 2A and FIG. 2B.
Intracellular calcium dynamics was confirmed in the fatty liver cell model constructed in vitro by inducing insulin resistance. At this time, the experiment was performed by the same manner under the same conditions as described in Example 3 except that Fura-2 AM was used instead of Fluo-3 AM.

Akt protein [3] = experiment: Western blotting of Akt protein phosphorylation in insulin-treated HepG2 cells; format: cell-based, human; conditions: PA 24 hours, 100 nM insulin 15 minutes, compared with insulin alone
Protocol: First, male C57BL/6 mice at 8 weeks were divided into the fasted group wherein the mice were fasted for 16 hours and the refed group wherein the mice were fasted for 16 hours and then fed for 4 hours. Each group was sub-divided into the high fat diet group (HFD) and the normal diet group (chow). The liver cells were extracted from the raised mice by the same manner and under the same conditions as described in Example 1. The extracted liver cells were lysed in a lysis buffer containing phosphatase (Sigma-Aldrich, USA) and protease inhibitor (Sigma-Aldrich, USA). Proteins extracted from 2 to 3 mg of the liver tissue were homogenized by using a tissue homogenizer (TissuLyser, Qiagen, USA) for 1.5 minutes at a frequency of 1/30 sec. The homogenized lysate was centrifuged at 12,000 rpm for 15 minutes and the supernatant was obtained. The amount of the extracted protein was quantified by using a protein assay kit (Bio-Rad Laboratories, USA), and at this time BSA was used as a standard sample. 3 mg of the protein was mixed with 6× loading buffer, followed by electrophoresis using 10% SDS-PAGE gel. The electrophoresed protein was transferred onto a polyvinylidene fluoride (PVDF) membrane by using a transfer buffer at 4° C. with 120 V for 1.5 hours. The PVDF membrane on which the protein was transferred was pretreated with a blocking buffer prepared by mixing 5% skim milk with TBS buffer (TBS-T, pH 7.6) supplemented with Tween 20 for 30 minutes, and the membrane was washed with TBS-T. The washed membrane was added with the antibody against Akt (Cell Signaling Technology, USA), Akt(T308) (Cell Signaling Technology, USA), Akt(S473) (Cell Signaling Technology, USA), FOXO3A (Cell Signaling Technology, USA), FOXO3A(S253) (Cell Signaling Technology, USA), GSK-3β (Cell Signaling Technology, USA) or GSK-3β(S9) (Cell Signaling Technology, USA) protein as a primary antibody, followed by reaction at 4° C. for 12 hours. At this time, the antibody against actin (Santa Cruz Biotechnology, USA) protein was used for the control group. Upon completion of the reaction, the secondary antibody corresponding to the primary antibody was added thereto, followed by reaction at room temperature for 30 minutes. The PVDF membrane was washed with TBS-T buffer three times. The washed PVDF membrane was added with ECL solution (Thermo Scientific, USA), followed by image observation.
To investigate the changes in insulin sensitivity when insulin was added to the fatty liver cell model constructed in vitro, the phosphorylations of those proteins that were involved in insulin signal transduction were examined. PA was added to the human HepG2 cells prepared in Example 3, followed by reaction for 24 hours. […]

Akt protein [4] = experiment: Western blot of Akt activity with C2-Akt fusion protein and PI3K co-treated with PTEN or SHIP2; format: cell-based; conditions: cells with C2-Akt fusion protein and PI3K vectors co-treated with PTEN or SHIP2
Protocol: Particularly, the experiment was performed by the same manner under the same conditions as described in Example 2 except that the vector expressing the C2-Akt fusion protein and the vector expressing PI3K protein were co-treated with PTEN or SHIP2 and the antibody against Akt (Cell Signaling Technology, USA), Akt(T308) (Cell Signaling Technology, USA), Akt(S473) (Cell Signaling Technology, USA), PI3K (Cell Signaling Technology, USA), PTEN (Cell Signaling Technology, USA) or SHIP2 (Upstate Biotechnology, USA) protein was used as the primary antibody.

| Molecule | concentration of calcium in the cytoplasm (human HepG2 cells [1]) | intracellular calcium concentration (human HepG2 cells [2]) | Akt protein phosphorylation (Akt protein [3]) | Akt protein activity (Akt protein [4]) |
| --- | --- | --- | --- | --- |
| CCCCCCCCCCCCCCCC(=O)O [PA, Palmitic acid] | increased | significantly increased | significantly inhibited | – |
| B1 | – | – | – | reduced |
